Source: article PMC5663395, “Chemical Validation of Methionyl-tRNA Synthetase as a Druggable Target in Leishmania donovani” (ACS Infectious Diseases, 2017)
Read-outs that look alike come from different tables or passages of the source.

Assay: LogD measurement (Sirius T3, potentiometric)
Format: physicochemical
Conditions: octanol/water
Experimental: calculated, both in terms of pEC50 values. MIC (minimum inhibitory concentration) values are defined as the lowest concentration tested at which maximal inhibition is reached.
THP-1 cells were differentiated in 96-well plates with PMA as described above. Following differentiation the cells were treated for 30 min with dose-response curves of test compounds in presence of 100 nM LysoTracker Red DND-99 (Thermo Fisher) and 5 µg/ml Hoechst 33342. Next cells were washed 3 times with Hanks Buffered Saline Solution (Gibco) and imaged on a Perkin Elmer Operetta system. An image analysis algorithm to measure mean Lysotracker Red DND-99 intensity per cell was developed in Columbus. […]
To measure the pKa of DDD806905, a fast UV-metric method was performed using a Sirius T3 instrument (Sirius Analytical, U.K.). The calculation of the pKa was determined using the Sirius T3 refine software (Sirius Analytical, U.K.). In brief, the UV-metric pKa method is based on measuring pH during an acid-base titration and monitoring UV absorbance shift. […] The appearance of precipitate was monitored throughout the experiment by a turbidity sensing device. […] The pKas of DDD806905 was determined at the pH where there was maximal change in UV absorbance with respect to pH. […]
LogD7.4 values were quantified using a Sirius T3 instrument (Sirius Analytical, U.K.). […]
which gave the best fit to the data was then recorded as the logP. […]

`Cl.Cl.O=c1nc(NCCCNCc2cc3c(Cl)cc(Cl)cc3[nH]2)[nH]c2ccccc12` [DDD806905, 2-((3-(((4,6-dichloro-1H-indol-2-yl)methyl)amino)propyl)amino)quinazolin-4(1H)-one dihydrochloride] gave a logD (pH 5.6, read-out: log D5.6) of 0.3 and a logD (pH 7.3, read-out: log D7.3) of 2.6.
